Assay results as given in US20060079453A1, “Hla binding peptides and their uses” (priority 2002, published 2006).
pIC50: −log10 of the molar value. Several values for one entry are separate records, joined by “and”; a condition that tells them apart may be missing. Identical values can stand only once. Like-named read-outs stand apart in the source and are kept apart here. No end group written: not given here.

How the values were obtained:
Assay in all cases: biochemical
[1] = molecular target: HLA-B*0702 (Homo sapiens, UniProt P01889); assay type: binding
[2] = molecular target: HLA-B*3501 (Homo sapiens, UniProt P01889, A329T/A93T/A95T/C349S/D201E/D98Y/E176V/E187L/E204Q/E69T/I218V/K202T/L119I/Q94N/R155S/R180L/S121R/S35A/S48A/T118I/V127L/V306I/V36M/Y140S/Y91F); conditions: B*3501 binding affinity (IC50)
[3] = molecular target: HLA-B*5101 (Homo sapiens, UniProt P01889, A329T/A93T/A95T/C349S/D138N/D201E/D98Y/E187L/E204Q/E69T/G107R/I218V/K202T/L105A/L119W/N104I/Q94N/R106L/R155S/R180L/S101N/S121T/S35A/S48A/V306I/V36M/Y195H/Y91F); conditions: B*5101 binding affinity (IC50)
[4] = molecular target: HLA-B*5401 (Homo sapiens, UniProt P01889, A329T/C349S/D138N/D201E/E176V/E187T/E204Q/E69G/I76V/K202T/L119W/R155S/R180L/S121T/S35A/S48A/V127L/V306I/V36M/Y140L); assay type: binding
[5] = molecular target: H-2Ld (Mus musculus, UniProt P01897); assay type: binding, murine
H-2Ld, sequence (P01897 25-362): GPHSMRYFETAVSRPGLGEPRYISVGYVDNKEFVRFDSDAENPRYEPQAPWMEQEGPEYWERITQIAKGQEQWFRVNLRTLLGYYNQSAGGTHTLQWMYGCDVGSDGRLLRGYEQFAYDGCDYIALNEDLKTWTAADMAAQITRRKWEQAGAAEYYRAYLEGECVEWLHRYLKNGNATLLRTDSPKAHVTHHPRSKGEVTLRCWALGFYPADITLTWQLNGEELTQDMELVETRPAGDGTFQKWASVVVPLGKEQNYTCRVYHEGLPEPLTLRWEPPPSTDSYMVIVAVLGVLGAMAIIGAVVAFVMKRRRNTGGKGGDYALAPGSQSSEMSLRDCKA
H-2Ld, sequence (P61769 21-119, further chain): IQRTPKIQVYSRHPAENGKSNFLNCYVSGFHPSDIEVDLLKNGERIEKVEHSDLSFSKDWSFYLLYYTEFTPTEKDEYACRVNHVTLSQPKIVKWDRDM

[6] = molecular target: HLA-B*5301 (Homo sapiens, UniProt P01889, A329T/A93T/A95T/C349S/D201E/D98Y/E176V/E187L/E204Q/E69T/G107R/I218V/K202T/L105A/L119I/N104I/Q94N/R106L/R155S/R180L/S101N/S121R/S35A/S48A/T118I/V127L/V306I/V36M/Y140S/Y91F); assay type: binding
[7] = molecular target: H-2 Db (Mus musculus, UniProt P01899); assay type: binding, murine; conditions: Db
H-2 Db, sequence (P61769 21-119): as the sequence (P61769 21-119, further chain) above
H-2 Db, sequence (P01899 25-362): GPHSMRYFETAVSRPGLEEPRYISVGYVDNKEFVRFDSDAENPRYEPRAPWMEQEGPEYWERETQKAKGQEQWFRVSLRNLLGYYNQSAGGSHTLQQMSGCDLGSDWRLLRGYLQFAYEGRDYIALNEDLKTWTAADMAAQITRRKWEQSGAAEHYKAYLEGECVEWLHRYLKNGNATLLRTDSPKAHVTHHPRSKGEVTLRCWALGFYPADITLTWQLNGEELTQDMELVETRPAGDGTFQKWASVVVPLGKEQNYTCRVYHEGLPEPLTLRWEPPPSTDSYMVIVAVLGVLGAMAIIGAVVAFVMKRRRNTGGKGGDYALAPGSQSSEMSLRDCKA

[8] = molecular target: H-2Dd (Mus musculus, UniProt P01900); assay type: binding, murine
H-2Dd, sequence (P01900 25-365): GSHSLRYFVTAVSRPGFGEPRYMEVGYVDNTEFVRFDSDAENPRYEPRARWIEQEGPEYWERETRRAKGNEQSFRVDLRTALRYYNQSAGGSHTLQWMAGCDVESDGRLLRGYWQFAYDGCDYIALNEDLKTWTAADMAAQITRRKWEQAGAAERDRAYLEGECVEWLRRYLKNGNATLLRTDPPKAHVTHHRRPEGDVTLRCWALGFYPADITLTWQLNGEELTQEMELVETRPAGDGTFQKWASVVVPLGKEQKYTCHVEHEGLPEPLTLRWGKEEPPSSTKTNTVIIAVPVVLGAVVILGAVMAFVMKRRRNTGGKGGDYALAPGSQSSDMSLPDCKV
H-2Dd, sequence (P61769 21-119, further chain): as the sequence (P61769 21-119, further chain) above

[9] = molecular target: H-2Kk (Mus musculus, UniProt P04223); assay type: binding, murine
H-2Kk, sequence (P04223 22-369): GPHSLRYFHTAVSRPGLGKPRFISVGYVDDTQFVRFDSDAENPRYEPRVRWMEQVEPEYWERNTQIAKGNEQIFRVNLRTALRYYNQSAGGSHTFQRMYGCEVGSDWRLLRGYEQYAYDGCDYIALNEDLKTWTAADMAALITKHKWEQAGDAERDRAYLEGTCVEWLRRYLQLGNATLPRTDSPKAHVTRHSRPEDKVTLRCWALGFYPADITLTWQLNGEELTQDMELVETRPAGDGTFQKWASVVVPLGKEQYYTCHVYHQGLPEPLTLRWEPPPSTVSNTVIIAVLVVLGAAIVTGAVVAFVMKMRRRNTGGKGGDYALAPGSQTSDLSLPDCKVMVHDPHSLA
H-2Kk, sequence (P61769 21-119, further chain): as the sequence (P61769 21-119, further chain) above

## GPKVKQWPI
[1]; B*0702 binding affinity (IC50)
  pIC50: 5.26
[2]
  pIC50: < 4.14
[3]
  pIC50: < 4.26
[4]; B*5401 binding affinity (IC50)
  pIC50: < 4.30

## RPQGSGVYM
[5]; Ld
  pIC50: 7.41

## RPQASQVYM
[5]; Ld
  pIC50: 8.42

## FPVRPQVPI
[1]; B*0702 binding affinity (IC50)
  pIC50: 7.03
[2]
  pIC50: 6.91
[3]
  pIC50: 7.41
[4]; B*5401 binding affinity (IC50)
  pIC50: 8.04

## YPLTFGWCI
[1]; B*0702 binding affinity (IC50)
  pIC50: 4.27
[4]; B*5401 binding affinity (IC50)
  pIC50: 7.10

## LPPLERLTI
[1]; B*0702 binding affinity (IC50)
  pIC50: 4.61
[2]
  pIC50: 4.87
[3]
  pIC50: 6.44
[6]; B*5301 binding affinity (IC50)
  pIC50: 5.58
[4]; B*5401 binding affinity (IC50)
  pIC50: 4.95

## YPHFMLPTNL
[5]; read-out: Ld
  pIC50: 8.12

## CSCC[C@H](NC(=O)[C@@H](NC(=O)[C@H](CCC(=O)O)NC(=O)[C@H](CCSC)NC(=O)[C@H](CC(N)=O)NC(=O)[C@H](CCC(=O)O)NC(=O)[C@H](CC(N)=O)NC(=O)[C@H](CO)NC(=O)[C@H](C)N)[C@@H](C)O)C(=O)O
[7]
  pIC50: 7.39 and 7.48
[8]
  pIC50: < 4.43

## RGKYRAFVTI
[8]
  pIC50: 7.17

## SPGPGPGL
[1]; B*0702 binding affinity (IC50)
  pIC50: 6.76
[2]
  pIC50: 5.63
[3]
  pIC50: 5.45
[6]; B*5301 binding affinity (IC50)
  pIC50: 4.59
[4]; B*5401 binding affinity (IC50)
  pIC50: 4.27

## RPQASGVYM
[7]
  pIC50: < 4.36
[5]; Ld
  pIC50: 9.00 and 8.52

## FSPRRNGYL
[8]
  pIC50: 8.57

## QPRAPIRPI
[1]; B*0702 binding affinity (IC50)
  pIC50: 5.17
[2]
  pIC50: < 4.14
[3]
  pIC50: < 4.26
[4]; B*5401 binding affinity (IC50)
  pIC50: < 4.00

## GPGHKARVI
[1]; B*0702 binding affinity (IC50)
  pIC50: 5.77
[2]
  pIC50: < 4.14
[3]
  pIC50: < 4.26
[4]; B*5401 binding affinity (IC50)
  pIC50: < 4.30

## FPLTFGWCFKI
[1]; B*0702 binding affinity (IC50)
  pIC50: 4.28
[2]
  pIC50: 5.30
[3]
  pIC50: 6.23
[6]; B*5301 binding affinity (IC50)
  pIC50: 6.73

## CC(C)C[C@H](NC(=O)[C@H](Cc1c[nH]cn1)NC(=O)[C@H](CCCNC(=N)N)NC(=O)[C@H](CCC(N)=O)NC(=O)[C@H](CCCCN)NC(=O)[C@H](CCC(=O)O)NC(=O)[C@H](CCC(=O)O)NC(=O)[C@@H]1CCCN1C(=O)[C@@H](N)CS)C(=O)O
[1]; B*0702 binding affinity (IC50)
  pIC50: 8.00
[2]
  pIC50: < 4.28
[3]
  pIC50: < 4.45
[6]; B*5301 binding affinity (IC50)
  pIC50: < 3.96
[4]; B*5401 binding affinity (IC50)
  pIC50: < 4.11

## RGAYRAFVTI
[8]
  pIC50: 8.47

## CC(C)C[C@H](NC(=O)[C@H](C)NC(=O)[C@@H](NC(=O)[C@H](CC(C)C)NC(=O)[C@H](C)NC(=O)[C@@H](NC(=O)[C@@H](NC(=O)[C@H](CCCNC(=N)N)NC(=O)[C@@H]1CCCN1C(=O)[C@H](C)N)[C@@H](C)O)C(C)C)[C@@H](C)O)C(=O)O [APRTVALTAL]
[1]; B*0702 binding affinity (IC50)
  pIC50: 7.92
[2]
  pIC50: 5.36
[3]
  pIC50: 4.84
[6]; B*5301 binding affinity (IC50)
  pIC50: 4.21
[4]; B*5401 binding affinity (IC50)
  pIC50: 4.77

## RGPFRAFVTI
[8]
  pIC50: 9.11

## CC(C)C[C@H](NC(=O)[C@@H]1CCCN1C(=O)[C@@H](NC(=O)[C@H](CCC(N)=O)NC(=O)[C@@H]1CCCN1C(=O)[C@H](CCCNC(=N)N)NC(=O)[C@@H](NC(=O)[C@@H]1CCCN1C(=O)[C@@H](N)Cc1ccccc1)C(C)C)C(C)C)C(=O)O
[1]; B*0702 binding affinity (IC50)
  pIC50: 7.77
[2]
  pIC50: 8.42
[3]
  pIC50: 7.74
[6]; B*5301 binding affinity (IC50)
  pIC50: 7.31
[4]; B*5401 binding affinity (IC50)
  pIC50: 7.68

## CSCC[C@H](NC(=O)[C@@H](NC(=O)[C@H](C)NC(=O)[C@H](Cc1ccccc1)NC(=O)[C@H](CC(N)=O)NC(=O)[C@H](Cc1ccc(O)cc1)NC(=O)[C@@H](NC(=O)[C@H](C)NC(=O)[C@@H](N)CCCCN)C(C)C)[C@@H](C)O)C(=O)O
[5]; Ld
  pIC50: < 4.57

## EEKHEKKHV
[9]
  pIC50: 6.55

## TPAIRGPGPGF
[1]; read-out: B*0702 binding affinity (IC50)
  pIC50: 6.84
[6]; read-out: B*5301 binding affinity (IC50)
  pIC50: 5.56
[4]; read-out: B*5401 binding affinity (IC50)
  pIC50: 4.50

## IPQSLDSWTSL
[5]; Ld
  pIC50: 9.66

## N=C(N)NCCC[C@H](NC(=O)[C@H](CCC(N)=O)NC(=O)[C@@H]1CCCN1C(=O)[C@@H](N)CCC(N)=O)C(=O)NCC(=O)N[C@@H](Cc1ccc(O)cc1)C(=O)N[C@@H](CCC(=O)O)C(=O)N[C@@H](CC(N)=O)C(=O)N[C@@H](Cc1ccccc1)C(=O)O
[5]; Ld
  pIC50: 6.50

## FPLTFGWCI
[1]; B*0702 binding affinity (IC50)
  pIC50: 4.32
[2]
  pIC50: 6.79
[3]
  pIC50: 7.20
[6]; B*5301 binding affinity (IC50)
  pIC50: 7.44
[4]; B*5401 binding affinity (IC50)
  pIC50: 7.85

## KAVANFATM
[7]
  pIC50: 8.92
[5]; Ld
  pIC50: 4.57

## RIPNASGVYM
[5]; read-out: Ld
  pIC50: 7.72

## TPAGPGPGVF
[1]; B*0702 binding affinity (IC50)
  pIC50: 6.48
[2]
  pIC50: 6.43
[6]; B*5301 binding affinity (IC50)
  pIC50: 5.58

## KGPYRAFVTI
[8]
  pIC50: 8.24

## RGPYRAAVTI
[8]
  pIC50: 8.70

## KAVYNFAAM
[7]
  pIC50: 8.36
[5]; Ld
  pIC50: 4.57

## RGPYRKFVTI
[8]
  pIC50: 8.44

## LGFVFTLTV
[1]; B*0702 binding affinity (IC50)
  pIC50: 6.07
[2]
  pIC50: < 4.14
[6]; B*5301 binding affinity (IC50)
  pIC50: < 4.03

## FPGPGPGPL
[1]; B*0702 binding affinity (IC50)
  pIC50: 5.80
[2]
  pIC50: 6.37
[3]
  pIC50: 5.63
[6]; B*5301 binding affinity (IC50)
  pIC50: 4.68
[4]; B*5401 binding affinity (IC50)
  pIC50: 4.52

## RGPYRAFATI
[8]
  pIC50: 8.68

## CPTVQASKL
[1]; B*0702 binding affinity (IC50)
  pIC50: 5.49
[2]
  pIC50: 6.19
[3]
  pIC50: 6.35
[6]; B*5301 binding affinity (IC50)
  pIC50: 5.73
[4]; B*5401 binding affinity (IC50)
  pIC50: 4.66

## RPRGPGPGSEF
[1]; B*0702 binding affinity (IC50)
  pIC50: 7.96
[2]
  pIC50: 4.60
[3]
  pIC50: < 4.83
[6]; B*5301 binding affinity (IC50)
  pIC50: 4.71
[4]; B*5401 binding affinity (IC50)
  pIC50: 5.56

## RPQVPLRPMTI
[2]
  pIC50: < 4.72 and 4.98
[3]
  pIC50: 5.09
[4]; B*5401 binding affinity (IC50)
  pIC50: < 4.82

## RPQVPLRPI
[1]; B*0702 binding affinity (IC50)
  pIC50: 6.44
[2]
  pIC50: < 4.63
[3]
  pIC50: < 5.05
[6]; B*5301 binding affinity (IC50)
  pIC50: 4.07

## RGPGRAFYTI
[8]
  pIC50: 8.14

## FPVGPGPGL
[2]
  pIC50: 7.85
[3]
  pIC50: 6.86
[6]; B*5301 binding affinity (IC50)
  pIC50: 7.49
[4]; B*5401 binding affinity (IC50)
  pIC50: 6.61

## AGPYRAFVTI
[8]
  pIC50: 8.30

## KAVYNYATM
[7]
  pIC50: 8.68
[5]; Ld
  pIC50: < 4.57

## VESENKVV
[9]
  pIC50: 6.46

## RPQASGVAM
[5]; Ld
  pIC50: 7.92

## WGPSLYSI
[8]
  pIC50: 7.77

## CC(C)C[C@H](NC(=O)CNC(=O)[C@H](CCC(N)=O)NC(=O)[C@H](Cc1ccc(O)cc1)NC(=O)[C@@H](NC(=O)[C@H](Cc1ccc(O)cc1)NC(=O)CNC(=O)[C@@H](N)CCCNC(=N)N)C(C)C)C(=O)O
[7]
  pIC50: < 4.36
[8]
  pIC50: < 4.43

## TPTGWGLAI
[1]; B*0702 binding affinity (IC50)
  pIC50: 7.12
[2]
  pIC50: 5.29
[6]; B*5301 binding affinity (IC50)
  pIC50: 5.87

## RGPYRAFVTK
[8]
  pIC50: 7.04

## RGPARAFVTI
[8]
  pIC50: 8.98

## SENDRYRLL
[9]; read-out: Kk
  pIC50: 7.89

## APCNFFTSA
[1]; B*0702 binding affinity (IC50)
  pIC50: 7.37
[2]
  pIC50: 5.09
[6]; B*5301 binding affinity (IC50)
  pIC50: < 4.65
[4]; B*5401 binding affinity (IC50)
  pIC50: 9.21

## KAVYNAATM
[7]
  pIC50: 8.70
[5]; Ld
  pIC50: < 4.57

## NEEPSDKHI
[9]
  pIC50: 7.40

## RGPGRYFVTI
[8]
  pIC50: 8.57
